Test results as given in the supplement of paper PMC10883282.
± gives the standard deviation of the averaged measurements.

Tested on: RD-ES
Assay: relative viability vs DMSO control (72 h) (fraction); higher = more viable cells
Method in brief: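 After seeding at densities set for 80–90% confluence in 384-well plates, sarcoma cell lines waited 24 h before 2.5 µl of serially diluted compound was added. Source plates held 10 mM down to 0.0002 mM. Plates were incubated 72 h at 37 °C with 5% CO2, with 0.1% DMSO vehicle and a 5 µM positive control, and relative viability was taken from ATPLite as percent growth averaged over up to triplicate wells, with 1 set as full and 0 as none.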

SMILES | relative viability (0.00017 µM) | relative viability (0.00051 µM) | relative viability (0.00152 µM) | relative viability (0.00457 µM) | relative viability (0.01372 µM) | relative viability (0.04115 µM) | relative viability (0.1235 µM) | relative viability (0.3704 µM) | relative viability (1.111 µM) | relative viability (3.333 µM) | relative viability (10 µM)
COc1cc2/c(=N/c3ccc(Br)cc3F)nc[nH]c2cc1OCC1CCN(C)CC1 [Vandetanib] | 0.944 ± 0.034 | 0.949 ± 0.031 | 0.957 ± 0.01 | 0.939 ± 0.047 | 0.927 ± 0.025 | 0.94 ± 0.041 | 0.944 ± 0.053 | 0.922 ± 0.056 | 0.804 ± 0.054 | 0.648 ± 0.029 | 0.0224 ± 0.01
CCc1cc2c(cc1N1CCC(N3CCOCC3)CC1)C(C)(C)c1[nH]c3cc(C#N)ccc3c1C2=O [Alectinib] | 0.9941 ± 0.0039 | 0.997 ± 0.011 | 0.993 ± 0.016 | 0.997 ± 0.025 | 0.988 ± 0.026 | 1 ± 0.029 | 1.03 ± 0.039 | 0.988 ± 0.036 | 1.04 ± 0.029 | 1.04 ± 0.014 | 1.03 ± 0.034
Cc1nc(-c2cn3c(n2)-c2ccc(-c4cnn(C(C)(C)C(N)=O)c4)cc2OCC3)n(C(C)C)n1 [Taselisib] | 0.992 ± 0.028 | 0.983 ± 0.033 | 0.962 ± 0.026 | 0.949 ± 0.019 | 0.851 ± 0.044 | 0.694 ± 0.01 | 0.556 ± 0.0063 | 0.472 ± 0.0073 | 0.426 ± 0.016 | 0.347 ± 0.0097 | 0.224 ± 0.0038
O=C(Cc1ccc(-c2ccc(OCCN3CCOCC3)cc2)cn1)NCc1ccccc1 [KX2-391] | 0.984 ± 0.025 | 1.002 ± 0.0063 | 1.01 ± 0.029 | 0.996 ± 0.017 | 0.973 ± 0.022 | 0.674 ± 0.021 | 0.0817 ± 0.0038 | 0.0547 ± 0.0048 | 0.0489 ± 0.0023 | 0.0417 ± 0.0023 | 0.0395 ± 0.0014
